Experimental data as given in US20090092550A1, “PORPHYRIN LINKED METRONIDAZOLE AGAINST GUM DISEASE: PORPHYROMONAS GINGIVALIS” (The University of Sydney, priority 2004, published 2009).
≈ marks a conversion by molar mass, not a printed value. Where two headings read alike, the source gives them in different places.

Columns and labels:
[1] = tested on: P. gingivalis ATCC 33277 cells; test: Growth inhibition assay, turbidity (optical density) over 72 h; type: cell-based, Porphyromonas gingivalis
Protocol: The mono-adducts 20 and 21 and metronidazole were tested on the targeted organism, P. gingivalis with the standard controls to compare the potency of the mono-adducts 20 and 21 compared to metronidazole towards the targeted organism. In a 96-well polystyrene plate divided into four sections, a series of dilutions of the mixture of the mono-adducts 20 and 21, metronidazole, DPIX 5 and DMSO were made up. These were transferred into test-tubes in quadruplicate and the P. gingivalis cells were added in triplicate leaving one test-tube as a blank control free of P. gingivalis cells. The growth of the P. gingivalis cells were monitored over 3 days (72 h) and growth was noted by the turbidity of the medium and recorded as the optical density.
The growth inhibition assays show differences in growth responses to metronidazole and the mixture of the mono-adducts 20 and 21.
(§1) Bovine hemoglobin (Hb), Hb-agarose beads, hemin (Hm) and Hm-agarose beads were supplied by Sigma-Aldrich Company. The translated product of a synthetic HA2 gene, derived from the sequence of RgpA, was expressed in E. coli with a C-terminal polyhistidine tag (International Patent Application No. WO 2002061091) and is referred to as rHA2. rHA2 was functionally purified by Hb-agarose affinity chromatography. Anti-gingipain monoclonal antibody (mAb) 5A1 was prepared in mice. Secondary goat anti-mouse antibody conjugated with alkaline phosphatase (AP) was supplied by Dako Corporation. 4-nitrophenylphosphate (p-NPP) was supplied by Boehringer. P. gingivalis ATCC 33277 cells was used in all growth assays and cultures were anaerobically grown at 37° C. in an atmosphere containing CO2 (5%), H2 (10%) and N2 (85%). P. gingivalis and P. melaminogenica cells were grown in Center for Disease Control (CDC) medium and F. nucleatum cells were grown in Brain Heart Infusion (BHI) medium.
Cultivation and biological testing were carried out on P. gingivalis ATCC 33277 cells and the cultures were anaerobically grown at 37° C. in an atmosphere containing CO2 (5%), H2 (10%) and N2 (85%). The cultures were inoculated with heme, menadione and either DMSO, DPIX 5, metronidazole, DPIX 5+ metronidazole or adduct 20 and 21. In a 96-well polystyrene plate divided into four sections, a series of dilutions of the mixture of the mono-adducts 20 and 21, metronidazole, DPIX 5 and DMSO were made up. These were transferred into test-tubes in quadruplicate and the P. gingivalis cells were added in triplicate leaving one test-tube as a blank control free of P. gingivalis cells. The growth of the P. gingivalis cells were monitored over 3 days (72 h) and growth was noted by the turbidity of the medium and recorded as the optical density.

P. melaminogenica = test: Growth inhibition assay on a related organism; type: cell-based, Prevotella melaminogenica; settings: 20 μM, over 72 h (FIG. 7B)
Protocol: as §1

F. nucleatum = test: Growth inhibition assay on an unrelated organism; type: cell-based, Fusobacterium nucleatum; settings: 20 μM, over 72 h (FIG. 7C)
Protocol: As it is useful to test the mono-adducts 20 and 21 on non-related bacteria as well, as there is a large and complex community of bacteria present in the gingival crevice causing periodontal diseases, the mono-adducts 20 and 21 were also tested on the unrelated organism F. nucleatum.
as §1

[2] = tested on: P. gingivalis ATCC 33277 cells; settings: literature (Poulet et al. 1999; Mitchell 1984); cited from earlier work
[3] = biological target: HA2 domain (rHA2, derived from the sequence of RgpA); test: ELISA binding of plate-coated porphyrin to rHA2; set-up: species or system Porphyromonas gingivalis; settings: FIG. 5, mean of three similar KD50s, read-out: KD50 to HA2
Protocol: The KD50 of the mono-adducts 20 and 21 to HA2 was established using Enzyme-Linked ImmunoSorbent Assay (ELISA), whereby a 96-well polystyrene plate was coated with either the mono-adducts 20 and 21 or hemin in an alkaline coating buffer at pH 9.0. The plates were then washed and blocked for 30 min with a phosphate buffered saline solution containing Tween-20, a […] detergent to prevent any non-specific binding. Dilutions of HA2 in a slightly acidic acetate buffer at pH 5.5 were then titrated down the rows of the 96-well plate and the plate was incubated in an IR Sensor CO2 incubator at 37° C. for 1.5 h to allow binding of either the mono-adducts 20 and 21 or hemin to HA2. […] A secondary goat anti-mouse antibody conjugated with alkaline phosphatase (AP) was then added to detect the primary antibody and the binding of either the mono-adducts 20 and 21 or hemin to HA2 was recorded as optical density on a Bio-rad Microplate reader as the amount of dephosphorylation of the substrate para-nitrophenolphosphate to para-nitrophenol catalyzed by AP. […]
The mixture of mono-metronidazole-substituted adducts 20 and 21 and heme (both at 5 μg/ml) were coated on the plastic well surfaces of a 96-well plate in coating buffer at pH 9.0. […] Apparent dissociation constants were calculated from best-fit KD50 binding curves.

[4] = biological target: HA2 domain (rHA2, derived from the sequence of RgpA); settings: known value for the standard; read-out: binding dissociation constant to HA2; cited from earlier work

| Compound | growth suppression of P. gingivalis ([1]; 0.5 μM, over 72 h (FIG. 6E)) | time after which activity is lost and P. gingivalis growth recovers ([1]; 1 μM (FIG. 6D)) | growth inhibition of P. gingivalis ([1]; 4 μM, over 72 h (FIG. 6B)) | growth inhibition of P. gingivalis ([1]; 20 μM, over 72 h (FIG. 6A, FIG. 7A)) | growth suppression of P. gingivalis ([1]; 2 KM, over 72 h (FIG. 6C)) | MIC ([1]; Porphyromonas gingivalis, ATCC33277, P. gingivalis, approximate, from FIG. 6, read-out: Minimum Inhibitory Concentration (MIC)) | growth inhibition of P. melaminogenica (P. melaminogenica) | growth inhibition of F. nucleatum (F. nucleatum) | activity against P. gingivalis [2] | Kd [3] | Kd [4] |
| --- | --- | --- | --- | --- | --- | --- | --- | --- | --- | --- | --- |
| Cc1ncc([N+](=O)[O-])n1CCO [metronidazole] | no effect of growth suppression | approximately 50 h | complete inhibition | complete inhibition of growth | completely supresses growth | 1 to 2 µM (≈ 0.171 to 0.342 µg/mL) | complete suppression of growth | complete inhibition | excellent activity | – | – |
| hemin | – | – | – | – | – | – | – | – | – | 15 nM | ~15 nM |
